Measurements: ChEMBL document CHEMBL3124838, “Discovery of 6-aryl-azabenzimidazoles that inhibit the TBK1/IKK-ε kinases” (Bioorg Med Chem Lett, 2014)

Legend:
[1] = target: T1, Phosphatidylinositol 3-kinase C2 domain-containing subunit gamma (Homo sapiens) (UniProt O75747); assay: Inhibition of human PI3KC2gamma assessed as residual activity at 1 uM relative to control
T1 sequence (whole entry): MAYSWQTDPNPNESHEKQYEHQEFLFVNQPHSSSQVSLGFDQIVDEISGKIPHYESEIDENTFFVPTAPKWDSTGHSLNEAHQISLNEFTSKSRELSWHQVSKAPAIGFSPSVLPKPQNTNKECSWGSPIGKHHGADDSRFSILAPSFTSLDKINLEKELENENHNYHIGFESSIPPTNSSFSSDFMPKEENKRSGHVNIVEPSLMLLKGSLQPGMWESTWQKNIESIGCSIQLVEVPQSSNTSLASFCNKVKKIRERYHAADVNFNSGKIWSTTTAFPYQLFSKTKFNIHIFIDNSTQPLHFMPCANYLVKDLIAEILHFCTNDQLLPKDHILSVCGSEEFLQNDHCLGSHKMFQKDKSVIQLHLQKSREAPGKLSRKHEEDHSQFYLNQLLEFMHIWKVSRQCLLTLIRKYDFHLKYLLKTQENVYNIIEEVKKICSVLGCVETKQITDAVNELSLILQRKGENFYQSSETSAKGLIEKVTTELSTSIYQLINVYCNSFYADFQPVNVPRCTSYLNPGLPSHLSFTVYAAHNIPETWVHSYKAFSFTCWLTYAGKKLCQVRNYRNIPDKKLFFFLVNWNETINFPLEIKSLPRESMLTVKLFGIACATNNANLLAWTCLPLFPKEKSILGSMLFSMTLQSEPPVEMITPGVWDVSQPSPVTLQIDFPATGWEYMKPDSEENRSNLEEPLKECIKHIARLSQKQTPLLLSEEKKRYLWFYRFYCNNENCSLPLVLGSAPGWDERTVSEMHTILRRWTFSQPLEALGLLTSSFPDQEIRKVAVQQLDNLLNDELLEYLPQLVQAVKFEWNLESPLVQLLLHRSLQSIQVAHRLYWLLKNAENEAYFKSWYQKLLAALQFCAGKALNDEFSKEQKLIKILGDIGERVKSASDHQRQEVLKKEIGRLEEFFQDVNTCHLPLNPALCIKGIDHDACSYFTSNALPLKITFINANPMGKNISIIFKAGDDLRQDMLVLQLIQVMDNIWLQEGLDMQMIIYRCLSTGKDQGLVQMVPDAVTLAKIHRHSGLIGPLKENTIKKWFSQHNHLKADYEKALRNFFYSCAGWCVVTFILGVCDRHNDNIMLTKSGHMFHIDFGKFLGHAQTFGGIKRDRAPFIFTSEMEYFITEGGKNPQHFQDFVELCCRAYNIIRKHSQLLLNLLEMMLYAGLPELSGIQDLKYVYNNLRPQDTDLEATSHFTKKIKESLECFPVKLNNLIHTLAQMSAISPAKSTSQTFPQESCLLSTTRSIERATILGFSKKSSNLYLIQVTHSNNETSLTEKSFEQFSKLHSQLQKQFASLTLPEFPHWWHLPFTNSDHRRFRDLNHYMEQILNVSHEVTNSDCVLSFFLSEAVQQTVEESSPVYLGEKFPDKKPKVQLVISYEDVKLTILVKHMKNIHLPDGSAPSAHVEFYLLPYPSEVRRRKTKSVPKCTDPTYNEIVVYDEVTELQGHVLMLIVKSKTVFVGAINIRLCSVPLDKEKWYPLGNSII

[2] = target: Focal adhesion kinase 1 (Homo sapiens) (UniProt Q05397); assay: Inhibition of human FAK assessed as residual activity at 1 uM relative to control
Focal adhesion kinase 1 (Homo sapiens), sequence (Q05397 2-1052 limits assumed): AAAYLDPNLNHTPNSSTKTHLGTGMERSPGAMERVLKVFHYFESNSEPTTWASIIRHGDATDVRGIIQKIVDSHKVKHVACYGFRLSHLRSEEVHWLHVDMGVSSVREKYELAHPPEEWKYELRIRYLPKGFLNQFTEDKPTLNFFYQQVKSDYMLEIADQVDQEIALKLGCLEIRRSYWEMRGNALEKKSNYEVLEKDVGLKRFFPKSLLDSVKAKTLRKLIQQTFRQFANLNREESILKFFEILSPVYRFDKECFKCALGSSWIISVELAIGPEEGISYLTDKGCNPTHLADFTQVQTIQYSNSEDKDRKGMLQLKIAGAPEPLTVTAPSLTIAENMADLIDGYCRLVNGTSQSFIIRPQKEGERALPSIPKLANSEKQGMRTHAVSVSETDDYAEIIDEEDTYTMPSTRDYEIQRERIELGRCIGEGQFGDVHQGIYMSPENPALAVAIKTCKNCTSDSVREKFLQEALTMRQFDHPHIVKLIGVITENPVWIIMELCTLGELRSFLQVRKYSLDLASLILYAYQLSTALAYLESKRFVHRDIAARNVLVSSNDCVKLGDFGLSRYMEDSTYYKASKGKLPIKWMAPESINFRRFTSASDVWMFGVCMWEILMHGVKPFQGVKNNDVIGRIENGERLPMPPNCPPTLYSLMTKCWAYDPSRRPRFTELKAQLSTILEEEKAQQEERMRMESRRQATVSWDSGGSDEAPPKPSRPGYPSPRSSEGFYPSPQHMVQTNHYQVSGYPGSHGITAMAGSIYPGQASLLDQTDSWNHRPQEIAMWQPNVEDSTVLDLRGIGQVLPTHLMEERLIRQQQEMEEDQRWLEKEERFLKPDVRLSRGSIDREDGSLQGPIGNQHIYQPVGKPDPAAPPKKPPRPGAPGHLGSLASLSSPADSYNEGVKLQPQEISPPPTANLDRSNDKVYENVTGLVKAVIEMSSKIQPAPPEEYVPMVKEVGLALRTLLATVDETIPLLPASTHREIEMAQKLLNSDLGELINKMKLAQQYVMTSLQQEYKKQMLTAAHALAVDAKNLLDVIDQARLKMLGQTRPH

[3] = target: Myosin light chain kinase, smooth muscle (Homo sapiens) (UniProt Q15746); assay: Inhibition of human MLCK assessed as residual activity at 1 uM relative to control
Myosin light chain kinase, smooth muscle (Homo sapiens), sequence (Q15746 whole entry): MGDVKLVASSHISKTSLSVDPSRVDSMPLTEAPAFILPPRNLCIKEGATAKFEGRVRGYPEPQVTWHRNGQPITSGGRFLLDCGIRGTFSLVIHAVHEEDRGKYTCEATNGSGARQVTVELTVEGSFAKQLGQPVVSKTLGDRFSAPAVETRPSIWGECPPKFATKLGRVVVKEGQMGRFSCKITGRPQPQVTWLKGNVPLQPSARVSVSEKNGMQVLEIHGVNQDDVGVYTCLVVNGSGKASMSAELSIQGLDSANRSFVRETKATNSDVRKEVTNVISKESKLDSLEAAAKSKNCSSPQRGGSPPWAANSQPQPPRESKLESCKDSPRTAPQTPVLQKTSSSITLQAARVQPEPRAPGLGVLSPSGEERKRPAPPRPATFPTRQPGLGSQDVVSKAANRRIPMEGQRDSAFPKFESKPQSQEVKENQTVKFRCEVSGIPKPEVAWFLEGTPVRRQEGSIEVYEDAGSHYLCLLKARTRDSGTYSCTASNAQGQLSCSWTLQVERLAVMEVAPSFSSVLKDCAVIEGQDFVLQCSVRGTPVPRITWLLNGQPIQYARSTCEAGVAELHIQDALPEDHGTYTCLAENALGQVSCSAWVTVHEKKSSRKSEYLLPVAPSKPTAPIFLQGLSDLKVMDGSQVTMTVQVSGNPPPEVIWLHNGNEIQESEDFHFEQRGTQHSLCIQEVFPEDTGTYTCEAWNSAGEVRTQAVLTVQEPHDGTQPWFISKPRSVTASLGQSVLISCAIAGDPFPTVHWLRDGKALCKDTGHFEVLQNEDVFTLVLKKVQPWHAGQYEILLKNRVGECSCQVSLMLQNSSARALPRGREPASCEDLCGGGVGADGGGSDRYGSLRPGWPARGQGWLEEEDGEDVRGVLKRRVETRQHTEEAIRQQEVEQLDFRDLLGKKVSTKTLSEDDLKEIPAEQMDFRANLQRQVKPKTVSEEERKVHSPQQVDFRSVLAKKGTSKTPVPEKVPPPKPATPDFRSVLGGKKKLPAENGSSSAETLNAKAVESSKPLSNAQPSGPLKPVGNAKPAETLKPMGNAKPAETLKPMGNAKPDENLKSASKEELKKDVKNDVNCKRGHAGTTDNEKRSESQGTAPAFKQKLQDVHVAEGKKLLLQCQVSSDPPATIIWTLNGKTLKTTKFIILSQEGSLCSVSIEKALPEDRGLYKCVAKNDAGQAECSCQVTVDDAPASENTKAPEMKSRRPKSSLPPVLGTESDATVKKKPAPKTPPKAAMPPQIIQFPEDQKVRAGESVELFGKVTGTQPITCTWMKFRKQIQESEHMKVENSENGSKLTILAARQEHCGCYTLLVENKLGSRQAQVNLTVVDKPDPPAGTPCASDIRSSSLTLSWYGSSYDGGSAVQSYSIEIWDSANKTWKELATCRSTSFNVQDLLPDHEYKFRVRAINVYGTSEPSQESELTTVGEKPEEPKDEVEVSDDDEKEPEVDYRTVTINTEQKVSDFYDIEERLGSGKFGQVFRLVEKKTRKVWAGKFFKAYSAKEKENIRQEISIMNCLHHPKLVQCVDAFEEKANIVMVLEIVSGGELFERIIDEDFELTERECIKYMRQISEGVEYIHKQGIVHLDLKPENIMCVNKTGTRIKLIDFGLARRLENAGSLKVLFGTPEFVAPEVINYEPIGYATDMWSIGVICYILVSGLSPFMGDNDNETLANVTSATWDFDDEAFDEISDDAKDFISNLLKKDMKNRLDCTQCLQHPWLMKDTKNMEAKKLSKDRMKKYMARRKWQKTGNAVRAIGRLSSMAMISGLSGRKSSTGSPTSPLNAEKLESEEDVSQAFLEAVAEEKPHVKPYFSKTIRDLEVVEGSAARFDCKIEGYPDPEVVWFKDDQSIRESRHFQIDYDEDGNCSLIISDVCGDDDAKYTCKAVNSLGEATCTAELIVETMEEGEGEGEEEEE

[4] = target: T2, Dual specificity tyrosine-phosphorylation-regulated kinase 2 (Homo sapiens) (UniProt Q92630); assay: Inhibition of human DYRK2 assessed as residual activity at 1 uM relative to control
T2 sequence (whole entry): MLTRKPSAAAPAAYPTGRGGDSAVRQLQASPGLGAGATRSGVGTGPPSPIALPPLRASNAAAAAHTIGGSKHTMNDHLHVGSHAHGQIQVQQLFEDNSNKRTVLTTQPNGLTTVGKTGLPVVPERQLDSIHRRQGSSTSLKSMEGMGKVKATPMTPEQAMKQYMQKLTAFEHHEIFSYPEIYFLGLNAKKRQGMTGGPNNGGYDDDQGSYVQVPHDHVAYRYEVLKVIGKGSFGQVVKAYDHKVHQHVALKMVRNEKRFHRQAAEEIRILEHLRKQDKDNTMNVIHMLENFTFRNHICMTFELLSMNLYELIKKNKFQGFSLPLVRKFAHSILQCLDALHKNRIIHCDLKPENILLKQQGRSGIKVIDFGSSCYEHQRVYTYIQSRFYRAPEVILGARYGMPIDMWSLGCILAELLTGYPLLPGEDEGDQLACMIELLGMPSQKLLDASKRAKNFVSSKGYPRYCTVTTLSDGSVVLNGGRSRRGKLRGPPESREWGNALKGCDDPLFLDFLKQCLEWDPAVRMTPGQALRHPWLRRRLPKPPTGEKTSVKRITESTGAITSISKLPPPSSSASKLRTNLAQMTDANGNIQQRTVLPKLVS

[5] = target: T3, Serine/threonine-protein kinase 17A (Homo sapiens) (UniProt Q9UEE5); assay: Inhibition of human DRAK1 assessed as residual activity at 1 uM relative to control
T3 sequence (whole entry): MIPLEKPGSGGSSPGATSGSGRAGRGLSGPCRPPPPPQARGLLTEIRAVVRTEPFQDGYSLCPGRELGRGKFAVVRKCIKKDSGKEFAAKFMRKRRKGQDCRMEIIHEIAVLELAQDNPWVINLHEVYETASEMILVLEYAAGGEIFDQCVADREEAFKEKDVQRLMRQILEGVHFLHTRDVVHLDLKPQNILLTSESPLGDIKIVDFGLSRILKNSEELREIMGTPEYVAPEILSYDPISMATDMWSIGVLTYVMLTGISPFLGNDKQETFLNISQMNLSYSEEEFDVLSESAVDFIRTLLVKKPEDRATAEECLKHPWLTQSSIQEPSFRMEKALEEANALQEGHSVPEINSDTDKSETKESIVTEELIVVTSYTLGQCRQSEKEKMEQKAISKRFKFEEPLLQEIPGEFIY

[6] = target: Phosphatidylinositol 4-phosphate 5-kinase type-1 gamma (Homo sapiens) (UniProt O60331); assay: Inhibition of human PIP5K1gamma assessed as residual activity at 1 uM relative to control
Phosphatidylinositol 4-phosphate 5-kinase type-1 gamma (Homo sapiens), sequence (O60331 whole entry): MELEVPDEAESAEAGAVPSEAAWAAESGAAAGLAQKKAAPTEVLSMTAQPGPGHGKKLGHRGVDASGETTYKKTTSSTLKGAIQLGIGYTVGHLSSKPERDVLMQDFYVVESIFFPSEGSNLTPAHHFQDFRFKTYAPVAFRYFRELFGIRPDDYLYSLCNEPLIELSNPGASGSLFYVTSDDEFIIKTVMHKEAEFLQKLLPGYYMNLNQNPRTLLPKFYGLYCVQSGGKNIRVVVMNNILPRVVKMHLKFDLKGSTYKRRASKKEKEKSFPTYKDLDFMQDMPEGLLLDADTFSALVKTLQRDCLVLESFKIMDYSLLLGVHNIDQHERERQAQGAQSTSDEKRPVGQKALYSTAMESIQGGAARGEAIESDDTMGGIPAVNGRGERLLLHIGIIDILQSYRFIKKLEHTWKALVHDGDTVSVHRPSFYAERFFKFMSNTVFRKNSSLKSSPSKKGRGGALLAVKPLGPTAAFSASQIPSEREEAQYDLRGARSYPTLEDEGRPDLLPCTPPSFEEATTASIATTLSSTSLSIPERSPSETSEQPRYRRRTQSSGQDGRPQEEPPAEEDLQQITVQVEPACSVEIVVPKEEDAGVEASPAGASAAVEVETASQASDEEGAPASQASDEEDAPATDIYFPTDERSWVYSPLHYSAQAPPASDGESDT

[7] = target: Protein kinase C alpha type (Homo sapiens) (UniProt P17252); assay: Inhibition of human PKCalpha assessed as residual activity at 1 uM relative to control
[8] = target: Serine/threonine-protein kinase MARK1 (Homo sapiens) (UniProt Q9P0L2); assay: Inhibition of human MARK1 assessed as residual activity at 1 uM relative to control
Serine/threonine-protein kinase MARK1 (Homo sapiens), sequence (Q9P0L2 whole entry, looked up): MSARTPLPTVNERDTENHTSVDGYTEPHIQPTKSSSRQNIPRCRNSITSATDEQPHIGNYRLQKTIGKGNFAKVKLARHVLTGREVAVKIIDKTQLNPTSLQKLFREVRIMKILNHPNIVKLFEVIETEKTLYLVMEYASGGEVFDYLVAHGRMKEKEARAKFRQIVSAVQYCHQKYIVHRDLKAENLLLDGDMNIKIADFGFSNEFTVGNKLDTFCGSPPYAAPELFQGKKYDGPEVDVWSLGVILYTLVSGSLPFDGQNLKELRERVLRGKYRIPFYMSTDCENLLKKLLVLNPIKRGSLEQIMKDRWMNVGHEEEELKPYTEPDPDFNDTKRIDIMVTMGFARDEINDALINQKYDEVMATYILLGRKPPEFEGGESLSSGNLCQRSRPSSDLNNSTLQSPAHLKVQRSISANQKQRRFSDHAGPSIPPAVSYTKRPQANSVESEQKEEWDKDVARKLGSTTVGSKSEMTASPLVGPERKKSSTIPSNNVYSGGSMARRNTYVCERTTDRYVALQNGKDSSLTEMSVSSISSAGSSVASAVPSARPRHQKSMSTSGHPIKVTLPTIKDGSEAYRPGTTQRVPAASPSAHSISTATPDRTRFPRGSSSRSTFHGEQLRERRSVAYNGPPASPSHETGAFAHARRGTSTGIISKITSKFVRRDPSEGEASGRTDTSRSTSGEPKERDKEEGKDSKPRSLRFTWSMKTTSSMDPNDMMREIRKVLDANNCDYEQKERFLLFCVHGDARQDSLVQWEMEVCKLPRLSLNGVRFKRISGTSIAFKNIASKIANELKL

`COc1ccc(-c2nc3cc(-c4csc(C(=O)NCCC(C)C)c4)cnc3[nH]2)cc1` gave an Activity [1] of 94%, an Activity [2] of 90% and an Activity [3] of 106%. The Activity [4] was 11%, the Activity [5] was 7% and the Activity [6] was 93%. The Activity [7] was 89% and the Activity [8] was 61%.

For `COc1ccc(-c2nc3cc(-c4csc(C(=O)NCC(C)(C)C)c4)cnc3[nH]2)cc1`, the Activity [1] was 94%, the Activity [2] was 80% and the Activity [3] was 95%. The Activity [4] was 30%, the Activity [5] was 8% and the Activity [6] was 86%. The Activity [7] was 91% and the Activity [8] was 58%.

`COc1ccc(-c2nc3cc(-c4csc(C(=O)NCC(C)C)c4)cnc3[nH]2)cc1` showed an Activity [1] of 92%, an Activity [2] of 91% and an Activity [3] of 100%. It also gave an Activity [4] of 20%, an Activity [5] of 4% and an Activity [6] of 88%. For the same compound, the Activity [7] was 101% and the Activity [8] was 48%.
